Where “and” joins values, the source holds several entries; their conditions need not be identical. Equal entries are not always repeated. Where two headings read alike, the source gives them in different places.
How the values were obtained:
[1] = cited from earlier work; for Intracellular TFV-DP levels, higher: than levels without boosting
[2] = Stability of TFV and FTC in stock solutions, processed samples and hair; format: physicochemical; conditions: for Stability in processed samples: a week in a refrigerator at 4°C; for Time stable in hair samples: room temperature, deviation less than ±15%
[3] = TFV and FTC concentrations in participant hair samples by LC/MS/MS; format: in vivo, human; conditions: for Difference of average hair concentration, TAF versus TDF: those on TAF relative to those on TDF
[4] = MSM on TAF/FTC/COBI/EVG versus TDF/FTC; cited from earlier work
[5] = cited from earlier work
[6] = cited from earlier work; remark: listed apart in the source
[7] = Plasma pharmacokinetics of TFV after TDF or TAF; format: in vivo, human; conditions: from ref 75 and ref 76
[8] = TDF/FTC to HIV-noninfected volunteers, directly-observed, 7 days a week; cited from earlier work
[9] = 200 μg/ml in 50% MeOH, at least 6 h at room temperature
[10] = 6 participants on TAF/FTC-based ART
[11] = 10 participants on TDF/FTC-based ART
[12] = TAF-based ART, with booster (COBI or RTV)
[13] = TDF-based ART, not receiving boosters
[14] = TDF-based ART, receiving boosters (COBI or RTV)
[15] = average of original and repeated, one line per patient
[16] = both TDF- and TAF-containing ART, not on booster drugs
[17] = both TDF- and TAF-containing ART, on concomitant boosters (COBI or RTV)
[18] = TAF-based versus TDF-based regimen with darunavir/COBI/FTC
[19] = plasma, TAF (8 mg) compared with TDF (300 mg)
[20] = plasma, TAF (25 mg) compared with TDF (300 mg)
[21] = plasma, from TAF with darunavir/COBI/FTC
[22] = plasma, from TDF with darunavir/COBI/FTC

| Compound | Stock solution stability [2, 9] [%] | Stability in processed samples [2] [%] | Stock solution stability ([2]; at least 1 year at 4°C) [%] | Time stable in hair samples [2] | Average hair concentration [3, 10] | Average hair concentration [3, 11] | Hair concentration [3, 12] [ng/mg hair] | Hair concentration ([3]; TAF-based ART, without booster) [ng/mg hair] | Hair concentration [3, 13] [ng/mg hair] | Hair concentration ([3]; TDF-based ART, receiving COBI) [ng/mg hair] | Hair concentration ([3]; TDF-based ART, receiving RTV) [ng/mg hair] | Hair concentration [3, 14] [ng/mg hair] | Hair concentration [3, 16] [ng/mg hair] | Hair concentration [3, 17] [ng/mg hair] | Difference of average hair concentration, TAF versus TDF [3] [%] | acidic pKa [5] | other results |
| --- | --- | --- | --- | --- | --- | --- | --- | --- | --- | --- | --- | --- | --- | --- | --- | --- | --- |
| CC(Cn1cnc2c(N)ncnc21)OCP(=O)(O)OP(=O)(O)OP(=O)(O)O (stereo in doubt) [TFV-DP, tenofovir diphosphate] |  |  |  |  |  |  |  |  |  |  |  |  |  |  |  |  | Intracellular TFV-DP levels, higher ([1]; EVG/COBI/TAF/FTC): 5.3 fold; AUC of TFV-DP in PBMCs, higher than on TDF ([1]; TAF 8 mg versus TDF): 16.7%; AUC of TFV-DP in PBMCs, higher than on TDF ([1]; TAF 25 mg versus TDF): 613%; Intracellular TFV-DP levels, higher ([1]; darunavir/COBI/TAF/FTC): 652% |
| Nc1nc(=O)n([C@@H]2CS[C@H](CO)O2)cc1F [FTC, emtricitabine] | > 95.0 | > 95.0 | > 95.0 | at least 18 months | 1.04 ± 0.83 ng/mg hair and 1.04 ng/mg hair | 0.846 ± 0.659 ng/mg hair and 0.846 ng/mg hair | 0.705 ± 0.233 | 1.37 ± 1.16 | 0.428 ± 0.343 | 1.26 ± 0.59 | 0.851 ± 0.807 | 1.03 ± 0.70 | 0.898 ± 0.925 | 0.930 ± 0.601 | 22.9 | 13.83 | FTC normalized average concentration, Average concentration [3, 15]: 0.988 ng/mg hair and 2.76 ng/mg hair and 1.05 ng/mg hair and 0.412 ng/mg hair and 1.86 ng/mg hair and 0.146 ng/mg hair and 0.840 ng/mg hair and 0.348 ng/mg hair and 0.694 ng/mg hair and 0.502 ng/mg hair; Median urine FTC concentrations between regimens [4]: not different; basic pKa [5]: 2.4 |
| Nc1[15n][13c](=O)[15n]([C@@H]2CS[C@H](CO)O2)cc1F [FTC-^13C,^15N2, emtricitabine-^13C,^15N2] | > 95.0 |  |  |  |  |  |  |  |  |  |  |  |  |  |  |  |  |
| C[C@H](Cn1cnc2c(N)ncnc21)OCP(=O)(O)O [TFV, Tenofovir] | > 95.0 | > 95.0 | > 95.0 | at least 18 months | 0.0379 ± 0.0139 ng/mg hair and 0.0379 ng/mg hair | 0.0553 ± 0.0318 ng/mg hair and 0.0553 ng/mg hair | 0.0389 ± 0.0117 | 0.0370 ± 0.0185 | 0.0483 ± 0.0327 | 0.0844 ± 0.0357 | 0.0388 ± 0.0146 | 0.0584 ± 0.0336 | 0.0426 ± 0.0246 | 0.0525 ± 0.0295 | −31.5 | 1.61 | plasma Cmax, lower ([6]; 25 mg TAF compared with 300 mg TDF): 17 times; plasma exposure of TFV, lower ([6]; EVG/COBI/TAF/FTC compared to EVG/COBI/TDF/FTC): 91%; TFV concentrations in the plasma with TAF lower than with TDF ([6]; TAF versus TDF): 4 fold; TFV exposure in plasma, decrease ([6]; TAF-based compared with TDF-based treatment): approximately 90%; AUC of TFV, decrease [6, 18]: 90.9%; Cmax of TFV, decrease [6, 18]: 95.5%; AUC of TFV, decrease [6, 19]: 96.6%; Cmax of TFV, decrease [6, 19]: 98.3%; AUC of TFV, decrease [6, 20]: 86.0%; Cmax of TFV, decrease [6, 20]: 93.6%; AUC of TFV [6, 21]: 339 ng·h/mL; Cmax of TFV [6, 21]: 18.8 ng/mL; AUC of TFV [6, 22]: 3737 ng·h/mL; Cmax of TFV [6, 22]: 413 ng/mL; plasma AUC of TFV, boosted versus non-boosted, higher ([7]; TAF co-administrated with darunavir/COBI): approximately 5 times; plasma AUC of TFV, boosted versus non-boosted, higher ([7]; TDF co-administrated with darunavir/COBI): 1.95 times; intracellular TFV concentration, increase ([1]; after switching from EVG/COBI/TDF/FTC to EVG/COBI/TAF/FTC): 141%; TFV normalized average concentration, Average concentration [3, 15]: 0.0500 ng/mg hair and 0.0698 ng/mg hair and 0.0375 ng/mg hair and 0.0186 ng/mg hair and 0.0973 ng/mg hair and 0.0289 ng/mg hair and 0.0850 ng/mg hair and 0.0304 ng/mg hair and 0.0274 ng/mg hair and 0.0468 ng/mg hair; Median urine TFV concentrations, lower on TAF-based regimen than on TDF [4]: approximately 14 times; median TFV hair concentration [8]: 0.038 ng/mg hair |
| CC(Cn1cnc2c(N)ncnc21)OCP(=O)(O)O (stereo not shown) [TFV-d6, Tenofovir-d6] | > 95.0 |  |  |  |  |  |  |  |  |  |  |  |  |  |  |  |  |
